For experiment [1] the following is noted: Gerster c.s., 25th Intersc. Conf. Antimicrob. Agents and Chemotherapy, 1985; cited from earlier work.
The subject of experiment [2] is E. coli. Description: Antibacterial activity, MIC and MBC (Table II). The experiment is classed as cell-based. The settings on record: Escherichia coli, assay in duplicate (two lines); for MBC: Minimum Bactericidal Concentration; for MIC: Minimum Inhibitory Concentration. From the text:
(§1) GBR 23790 is (S)-9-fluoro-3-methyl-10-(4-methyl-1-piperazinyl)-2,3-dihydro-7-oxo-7H-pyrido[1,2,3-de][1,4]-benzothiazine-6-carboxylic acid, which is S-ofloxacin, but with the ring oxygen atom substituted by a ring sulfur atom. • MIC = Minimum Inhibitory Concentration (mg/I) • MBC = Minimum Bactericidal Concentration (mg/I) Each assay has been carried out in duplicate. GBR 23790 in racemic form is known from EP 0165375 (compound (p) in Table I). Its MIC-values, are for bacteria 1, 2 and 4 in the above Table II, resp. 0.78, 0.78 and 50.

The test system of experiment [3] is Ps. aeruginosa. In words: Antibacterial activity, MIC and MBC (Table II). Conditions: assay in duplicate (two lines); for MBC: Minimum Bactericidal Concentration; for MIC: Minimum Inhibitory Concentration. The experiment is classed as cell-based.
Excerpt: as §1

For experiment [4], the system named is Staph. aureus. In words: Antibacterial activity, MIC and MBC (Table II). The experiment is classed as cell-based. The settings on record: Minimum Inhibitory Concentration, assay in duplicate (two lines).
Excerpt: as §1

Another experiment concerns Strep. faecalis. Description: Antibacterial activity, MIC and MBC (Table II). Conditions: Enterococcus faecalis, assay in duplicate (two lines); for MBC: Minimum Bactericidal Concentration; for MIC: Minimum Inhibitory Concentration. The experiment is classed as cell-based.
Excerpt: as §1

Experiment [5] has as its system E. coli. Conditions: bacterium 2 of Table II (E. coli); from EP 0165375; cited from earlier work.
Experiment [6] relates to Staph. aureus. The settings on record: bacterium 1 of Table II (Staph. aureus); from EP 0165375; cited from earlier work.
Experiment [7] deals with Ps. aeruginosa. The settings on record: bacterium 4 of Table II (Ps. aeruginosa); from EP 0165375; cited from earlier work.
The mark [8] stands for this setting: Pseudomonas aeruginosa, read-out: MBC.

Results on five compounds are retold here after EP0368410A2, “Optically active benzoxazines and bezothiazines and a process for their stereospecific preparation” (GIST-BROCADES N.V., priority 1988, dated 1990).

Molecules are shown by their SMILES. Values after ≈ are worked out from the molar mass of the structure shown. Where two headings read alike, the source gives them in different places.

Take `Cc1c(F)cc2c(=O)c(C(=O)O)cn3c2c1CC[C@@H]3C` [(S)-(-)-isomer of 6,7-dihydro-5,8-dimethyl-9-fluoro-1-oxo-1 ] [6,7-dihydro-5,8-dimethyl-9-fluoro-1-oxo-1 H,5H-benzo[ij]quinolizine-2-carboxylic acid]: the “antibacterial activity in vitro” value in experiment [1] was “potent antibacterial activity”.

For `C[C@H]1CSc2c(N3CCN(C)CC3)c(F)cc3c(=O)c(C(=O)O)cn1c23` [GBR 23790, (S)-9-fluoro-3-methyl-10-(4-methyl-1-piperazinyl)-2,3-dihydro-7-oxo-7H-pyrido[1,2,3-de][1,4]-benzothiazine-6-carboxylic acid], the MBC in the experiment on E. coli [2] amounted to 0.08 µg/mL (≈ 0.212 µM); in the experiment with Ps. aeruginosa [3] (setting [8]), 2.5 µg/mL (≈ 6.62 µM); against Strep. faecalis it was 2.5 µg/mL (≈ 6.62 µM). The MIC was 0.08 µg/mL (≈ 0.212 µM) against E. coli [2]; 1.25 µg/mL (≈ 3.31 µM) with Ps. aeruginosa [3] (Pseudomonas aeruginosa); 0.16 mg/I against Staph. aureus [4]; 0.08 µg/mL (≈ 0.212 µM) in the experiment with Staph. aureus [4] (Staphylococcus aureus, read-out: MIC); 1.25 µg/mL (≈ 3.31 µM) in the experiment on Strep. faecalis.

Take `Cc1c(F)cc2c(=O)c(C(=O)O)cn3c2c1CCC3C` (single isomer, unassigned) [(R)-(+)-isomer, 6,7-dihydro-5,8-dimethyl-9-fluoro-1-oxo-1 H,5H-benzo[ij]quinolizine-2-carboxylic acid]: the “antibacterial activity in vitro” value in experiment [1] was “much less active”.

On to `CC1CSc2c(N3CCN(C)CC3)c(F)cc3c(=O)c(C(=O)O)cn1c23` (racemic) [GBR 23790 in racemic form], for which the MIC-values with E. coli [5] is 0.78 mg/I; in the experiment with Staph. aureus [6], 0.78 mg/I; in the experiment with Ps. aeruginosa [7] it was 50 mg/I.

Regarding `C[C@H]1COc2c(N3CCN(C)CC3)c(F)cc3c(=O)c(C(=O)O)cn1c23` [(S)-ofloxacin, (S)-(-)-9-Fluoro-2,3-dihydro-3-methyl-10-(4-methyl-1-piperazinyl)-7-oxo-7H-pyrido[1,2,3-de][i ,4]benzoxazine-6-carboxylic acid], the MBC worked out at 0.04 µg/mL (≈ 0.111 µM) against E. coli [2], 1.25 mg/I with Ps. aeruginosa [3], 0.63 µg/mL (≈ 1.74 µM) in the experiment with Ps. aeruginosa [3] (setting [8]) and 1.25 µg/mL (≈ 3.46 µM) in the experiment with Strep. faecalis. Also, the figures for the MIC in the experiment on E. coli [2], against Ps. aeruginosa [3] (Pseudomonas aeruginosa) and against Strep. faecalis were 0.04 µg/mL (≈ 0.111 µM), 0.63 µg/mL (≈ 1.74 µM) and 1.25 µg/mL (≈ 3.46 µM), respectively.
